Measured values: patent US12077503B2, “Substituted cyclic amides and their use as herbicides” (FMC CORPORATION, priority 2015, dated 2024)

Legend:
Format in all cases: in vivo
[1] = test system: giant foxtail (Setaria faberi); assay: Test G Post-Emergence Protocol
Method: (§1) Seeds of corn (Zea mays), giant foxtail (Setaria faberi), barnyardgrass (Echinochloa crus-galli), ivy-leaved morning glory (Ipomoea hederacea), redroot pigweed (Amaranthus retroflexus) and velvetleaf (Abutilon theophrasti) were sown in standard soil in pots. After cultivation for 8 days under controlled conditions in a glasshouse (at 24/16° C., day/night; 14 hours light; 65% humidity), the plants were sprayed with an aqueous spray solution derived from the formulation of the technical active ingredient in acetone/water (50:50) solution containing 0.5% Tween 20 (polyoxyethylene sorbitan monolaurate, CAS RN 9005-64-5) to give a final dose of 15.625, 62.5 or 250 g/ha of test compound.
(§2) The test plants were then grown on under controlled conditions in a glasshouse (at 24/16° C., day/night; 14 hours light; 65% humidity) and watered twice daily. After 13 days the test was evaluated (100=total damage to plant; 0=no damage to plant). A dash (-) means no test result.

[2] = test system: velvetleaf (Abutilon theophrasti); assay: Test G Post-Emergence Protocol
Method: as §1, §2

corn (Zea mays) [3] = assay: Test G Post-Emergence Protocol
Method: as §1, §2

[4] = test system: ivy-leaved morning glory (Ipomoea hederacea); assay: Test G Post-Emergence Protocol
Method: as §1, §2

[5] = test system: barnyardgrass (Echinochloa crus-galli); assay: Test G Post-Emergence Protocol
Method: as §1, §2

[6] = test system: redroot pigweed (Amaranthus retroflexus); assay: Test G Post-Emergence Protocol
Method: as §1, §2

[7] = test system: giant foxtail (Setaria faberi); assay: Test G Pre-Emergence Protocol; conditions: evaluated after 13 days
Method: as §1, with “one day” for “8 days”
as §2

[8] = test system: velvetleaf (Abutilon theophrasti); assay: Test G Pre-Emergence Protocol; conditions: evaluated after 13 days
Method: as §1, with “one day” for “8 days”
as §2

corn (Zea mays) [9] = assay: Test G Pre-Emergence Protocol; conditions: evaluated after 13 days
Method: as §1, with “one day” for “8 days”
as §2

[10] = test system: ivy-leaved morning glory (Ipomoea hederacea); assay: Test G Pre-Emergence Protocol; conditions: evaluated after 13 days
Method: as §1, with “one day” for “8 days”
as §2

[11] = test system: barnyardgrass (Echinochloa crus-galli); assay: Test G Pre-Emergence Protocol; conditions: evaluated after 13 days
Method: as §1, with “one day” for “8 days”
as §2

[12] = test system: redroot pigweed (Amaranthus retroflexus); assay: Test G Pre-Emergence Protocol; conditions: evaluated after 13 days
Method: as §1, with “one day” for “8 days”
as §2

[13] = test system: pigweed (Amaranthus retroflexus); assay: Test A preemergence; conditions: Preemergence
Excerpt: (§3) Seeds of plant species selected from barnyardgrass (Echinochloa crus-galli), Kochia (Kochia scoparia), ragweed (common ragweed, Ambrosia elatior), ryegrass, Italian (Italian ryegrass, Lolium multiflorum), crabgrass, large (Digitaria sanguinalis), giant foxtail (Setaria faberii), green foxtail (Setaria viridis), morningglory (Ipomoea spp.), pigweed (Amaranthus retroflexus), velvetleaf (Abutilon theophrasti), wheat (Triticum aestivum), and corn (Zea mays) were planted into a blend of loam soil and sand and treated preemergence with a directed soil spray using test chemicals formulated in anon-phytotoxic solvent mixture which included a surfactant.
(§4) At the same time, plants selected from these crop and weed species and also blackgrass (Alopecurus myosuroides), and Galium (catchweed bedstraw, Galium aparine) were planted in pots containing the same blend of loam soil and sand and treated with postemergence applications of test chemicals formulated in the same manner. Plants ranged in height from 2 to 10 cm and were in the one- to two-leaf stage for the postemergence treatment. Treated plants and untreated controls were maintained in a greenhouse for approximately 10 d, after which time all treated plants were compared to untreated controls and visually evaluated for injury. Plant response ratings, summarized in Table A, are based on a 0 to 100 scale where 0 is no effect and 100 is complete control. A dash (-) response means no test result.

[14] = test system: giant foxtail (Setaria faberii); assay: Test A preemergence; conditions: Preemergence
Excerpt: as §3, §4

Kochia (Kochia scoparia) [15] = assay: Test A preemergence; conditions: Preemergence
Excerpt: as §3, §4

[16] = test system: ragweed (common ragweed, Ambrosia elatior); assay: Test A preemergence; conditions: Preemergence
Excerpt: as §3, §4

[17] = test system: barnyardgrass (Echinochloa crus-galli); assay: Test A preemergence; conditions: Preemergence
Excerpt: as §3, §4

[18] = test system: ryegrass, Italian (Italian ryegrass, Lolium multiflorum); assay: Test A preemergence; conditions: Preemergence
Excerpt: as §3, §4

[19] = test system: wheat (Triticum aestivum); assay: Test A postemergence
Excerpt: as §3, §4

[20] = test system: blackgrass (Alopecurus myosuroides); assay: Test A postemergence
Excerpt: as §3, §4

corn (Zea mays) [21] = assay: Test A postemergence
Excerpt: as §3, §4

[22] = test system: pigweed (Amaranthus retroflexus); assay: Test A postemergence
Excerpt: as §3, §4

[23] = test system: giant foxtail (Setaria faberii); assay: Test A postemergence
Excerpt: as §3, §4

Kochia (Kochia scoparia) [24] = assay: Test A postemergence
Excerpt: as §3, §4

[25] = test system: ragweed (common ragweed, Ambrosia elatior); assay: Test A postemergence
Excerpt: as §3, §4

[26] = test system: barnyardgrass (Echinochloa crus-galli); assay: Test A postemergence
Excerpt: as §3, §4

[27] = test system: ryegrass, Italian (Italian ryegrass, Lolium multiflorum); assay: Test A postemergence
Excerpt: as §3, §4

[28] = test system: Galium (catchweed bedstraw, Galium aparine); assay: Test A postemergence
Excerpt: as §3, §4

[29] = 15.625 g ai/ha, evaluated after 13 days (100=total damage to plant; 0=no damage to plant)
[30] = 62.5 g ai/ha, evaluated after 13 days
[31] = 250 g ai/ha, evaluated after 13 days
[32] = 62.5 g ai/ha, 100=total damage to plant, 0=no damage to plant
[33] = 125 g ai/ha, visual injury after approximately 10 d, 0 to 100 scale where 0 is no effect and 100 is complete control
[34] = 500 g ai/ha, visual injury approx. 10 d
[35] = 125 g ai/ha, postemergence, visual rating after approx. 10 d, 0 to 100 scale (0 no effect, 100 complete control)
[36] = Postemergence, 500 g ai/ha, 0 to 100 scale where 0 is no effect and 100 is complete control
[37] = 1000 g ai/ha, 0 is no effect, 100 is complete control
[38] = 1000 g ai/ha, postemergence, 0 to 100 scale, 0 no effect, 100 complete control

Cc1ccc(NC(=O)C2C(=O)N(C)CC2c2ccc(C(F)(F)F)cc2)c([N+](=O)[O-])c1 (racemic) [Compound 1592]
0: Foxtail, Giant damage rating [1, 29] | Velvetleaf damage rating [2, 29] | Corn damage rating (corn (Zea mays) [3]; [29]) | Corn damage rating (100=total damage to plant; 0=no damage to plant) (corn (Zea mays) [3]; [30]) | Morningglory, Ivy-leaved damage rating [4, 29] | Barnyardgrass damage rating [5, 29] | Pigweed, Redroot damage rating [6, 29] | Pigweed, Redroot damage rating (100=total damage to plant; 0=no damage to plant) [6, 30] | Foxtail, Giant damage rating (100=total damage to plant; 0=no damage to plant) ([7]; 15.625 g ai/ha) | Velvetleaf damage rating (100=total damage to plant; 0=no damage to plant) ([8]; 15.625 g ai/ha) | plant damage rating, Velvetleaf [8, 32] | Velvetleaf damage rating (100=total damage to plant; 0=no damage to plant) ([8]; 250 g ai/ha) | Corn damage rating (100=total damage to plant; 0=no damage to plant) (corn (Zea mays) [9]; 15.625 g ai/ha) | plant damage rating, Corn (corn (Zea mays) [9]; [32]) | Corn damage rating (100=total damage to plant; 0=no damage to plant) (corn (Zea mays) [9]; 250 g ai/ha) | plant damage rating, Morningglory, Ivy-leaved [10, 32] | Barnyardgrass damage rating (100=total damage to plant; 0=no damage to plant) ([11]; 15.625 g ai/ha) | Pigweed, Redroot damage rating (100=total damage to plant; 0=no damage to plant) ([12]; 15.625 g ai/ha) | plant damage rating, Pigweed, Redroot [12, 32]
40: Morningglory, Ivy-leaved damage rating (100=total damage to plant; 0=no damage to plant) [4, 30]
30: damage to plant, Barnyardgrass (100=total damage to plant; 0=no damage to plant) [5, 31] | Pigweed, Redroot damage rating (100=total damage to plant; 0=no damage to plant) ([12]; 250 g ai/ha)
70: damage to plant, Foxtail, Giant (100=total damage to plant; 0=no damage to plant) [1, 31] | Foxtail, Giant damage rating (100=total damage to plant; 0=no damage to plant) ([7]; 250 g ai/ha)
10: Velvetleaf damage rating (100=total damage to plant; 0=no damage to plant) [2, 30] | damage to plant, Velvetleaf (100=total damage to plant; 0=no damage to plant) [2, 31] | damage to plant, Corn (100=total damage to plant; 0=no damage to plant) (corn (Zea mays) [3]; [31]) | Barnyardgrass damage rating (100=total damage to plant; 0=no damage to plant) [5, 30] | damage to plant, Pigweed, Redroot (100=total damage to plant; 0=no damage to plant) [6, 31] | Morning-glory, Ivy-leaved damage rating (100=total damage to plant; 0=no damage to plant) ([10]; 15.625 g ai/ha) | Morningglory, Ivy-leaved damage rating (100=total damage to plant; 0=no damage to plant) ([10]; 250 g ai/ha) | plant damage rating, Barnyardgrass [11, 32]
50: Barnyardgrass damage rating (100=total damage to plant; 0=no damage to plant) ([11]; 250 g ai/ha)
60: Foxtail, Giant damage rating (100=total damage to plant; 0=no damage to plant) [1, 30] | damage to plant, Morningglory, Ivy-leaved (100=total damage to plant; 0=no damage to plant) [4, 31]
20: plant damage rating, Foxtail, Giant [7, 32]

CN1CC(c2cccc(C(F)(F)F)c2)C(C(=O)Nc2ccccc2[N+](=O)[O-])C1=O (stereo not drawn) [Compound 572]
80: Pigweed plant response rating (0 to 100 scale, 0 is no effect, 100 is complete control) [13, 34] | Kochia plant response rating (0 to 100 scale, 0 is no effect, 100 is complete control) (Kochia (Kochia scoparia) [15]; [34]) | Plant response rating, Blackgrass [20, 36] | Plant response rating, Corn (corn (Zea mays) [21]; [36])
90: Plant response rating, Foxtail, Giant [14, 33] | Foxtail, Giant plant response rating (0 to 100 scale, 0 is no effect, 100 is complete control) [14, 34] | Plant response rating, Barnyardgrass [17, 33] | Barnyardgrass plant response rating (0 to 100 scale, 0 is no effect, 100 is complete control) [17, 34] | Plant response rating, Foxtail, Giant [23, 35] | Plant response rating, Foxtail, Giant [23, 36] | Plant response rating, Barnyardgrass [26, 35] | Plant response rating, Barnyardgrass [26, 36]
50: Ragweed plant response rating (0 to 100 scale, 0 is no effect, 100 is complete control) [16, 34] | Plant response rating, Ryegrass, Italian [18, 33] | Ryegrass, Italian plant response rating (0 to 100 scale, 0 is no effect, 100 is complete control) [18, 34] | Plant response rating, Galium [28, 35]
0: Plant response rating, Ragweed [16, 33] | Plant response rating, Ragweed [25, 35]
20: Plant response rating, Kochia (Kochia (Kochia scoparia) [24]; [35]) | Plant response rating, Ragweed [25, 36]
60: Plant response rating, Wheat [19, 35] | Plant response rating, Corn (corn (Zea mays) [21]; [35]) | Plant response rating, Kochia (Kochia (Kochia scoparia) [24]; [36]) | Plant response rating, Ryegrass, Italian [27, 36] | Plant response rating, Galium [28, 36]
40: Plant response rating, Pigweed [13, 33] | Plant response rating, Pigweed [22, 36]
30: Plant response rating, Pigweed [22, 35] | Plant response rating, Ryegrass, Italian [27, 35]
70: Plant response rating, Kochia (Kochia (Kochia scoparia) [15]; [33]) | Plant response rating, Wheat [19, 36] | Plant response rating, Blackgrass [20, 35]

O=C(Nc1cccc(F)c1F)C1C(=O)N(CC=Cc2ccccc2)CC1c1cc(F)cc(F)c1 (stereo not drawn) [Compound 511]
20: Plant response rating, Blackgrass [20, 38]
90: Foxtail, Giant plant response rating (0 to 100 scale) [14, 37] | Barnyardgrass plant response rating (0 to 100 scale) [17, 37] | Plant response rating, Foxtail, Giant [23, 38] | Plant response rating, Barnyardgrass [26, 38]
0: Pigweed plant response rating (0 to 100 scale) [13, 37] | Kochia plant response rating (0 to 100 scale) (Kochia (Kochia scoparia) [15]; [37]) | Ragweed plant response rating (0 to 100 scale) [16, 37] | Ryegrass, Italian plant response rating (0 to 100 scale) [18, 37] | Plant response rating, Wheat [19, 38] | Plant response rating, Corn (corn (Zea mays) [21]; [38]) | Plant response rating, Pigweed [22, 38] | Plant response rating, Kochia (Kochia (Kochia scoparia) [24]; [38]) | Plant response rating, Ragweed [25, 38] | Plant response rating, Ryegrass, Italian [27, 38] | Plant response rating, Galium [28, 38]
